Data: patent US11629171B2, “Beta-hairpin peptidomimetics” (POLYPHOR AG, priority 2017, dated 2023)
Converted amounts (≈) assume the structure as drawn. Where a SMILES comes first, the peptide text is derived from it. Bridges are numbered along the chain shown (N, C = ends). Roman numbers before positions name the chains, in order. [ ]: non-standard residue; d: D form. The star is where a group is joined. Leu(3R-OH) = CC(C)[C@@H](O)[C@H](N)C(=O)O; Tle = CC(C)(C)[C@H](N)C(=O)O; Hiv = CC(C)[C@H](O)C(=O)O; dDab = NCC[C@@H](N)C(=O)O; hSer = N[C@@H](CCO)C(=O)O; Dab = NCC[C@H](N)C(=O)O; Dap = NC[C@H](N)C(=O)O; NHCH2CH2OH = OCCN*

How the values were obtained:
Assay type in all cases: cell-based
[1] = system: Acinetobacter baumannii 872842; details: 872842
Method in brief: (§1)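 Broth microdilution per CLSI; MH-II (cation-adjusted) + 0.002% P-80 final; ~10^6 CFU/mL inoculum; 2-fold peptide series; 35° C, 18-20 h; MIC = no visible growth, μg/mL.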

[2] = system: Klebsiella pneumoniae 968733; details: 968733
Method in brief: as §1

[3] = system: Klebsiella pneumoniae SSI #3010; details: SSI #3010
Method in brief: as §1

Escherichia coli 926415 = details: 926415
Method in brief: as §1

[4] = system: Enterobacter cloacae 848840; details: 848840
Method in brief: as §1

[5] = system: Acinetobacter baumannii DSM 30008; details: DSM 30008
Method in brief: as §1

[6] = system: Pseudomonas aeruginosa ATCC 27853; details: ATCC 27853
Method in brief: as §1

[7] = system: Escherichia coli ATCC 25922; details: ATCC 25922
Method in brief: as §1

[8] = system: human red blood cells (hRBC); test: Hemolysis; details: red cells of human, 1 h, 200
Method in brief: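 Percent lysis of human red cells was derived from OD540 of the supernatant, referenced to 2% Triton X-100, after a 1 h, 37° C incubation of 20% (v/v) cells with 200 μg/mL peptide.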

SMILES	MIC [1] [µg/mL]	MIC [2] [µg/mL]	MIC [3] [µg/mL]	MIC (Escherichia coli 926415) [µg/mL]	MIC [4] [µg/mL]	MIC [5] [µg/mL]	MIC [6] [µg/mL]	MIC [7] [µg/mL]	Hemolysis at 200 μg/mL [8] [%]
CC(=O)N[C@@H](CCN)C(=O)N[C@@H](CC(C)C)C(=O)N[C@H]1CSSC[C@@H](C(=O)N[C@H](C(N)=O)C(C)C)NC(=O)[C@H](C(C)(C)C)NC(=O)[C@@H]2CSSC[C@H](NC(=O)[C@H](Cc3ccc(O)cc3)NC1=O)C(=O)N[C@@H](CCC(=O)N[C@@H](CCN)C(=O)N[C@H](C(=O)N[C@@H](CN)C(=O)N[C@H]1CCNC(=O)[C@H]([C@@H](C)O)NC(=O)[C@H](CCN)NC(=O)[C@H](CCN)NC(=O)[C@H](CC(C)C)NC(=O)[C@@H](CC(C)C)NC(=O)[C@H](CCN)NC1=O)[C@@H](C)O)C(=O)N[C@H](CCN)C(=O)N[C@@H](CCN)C(=O)N[C@@H](Cc1c[nH]c3ccccc13)C(=O)N2 [Ex. 234] (I: Ac-[Dab]LCYCE[dDab][Dab]WC[Tle]CV-NH2 / II: [Dab]T[Dap][Dab][Dab][dL]L[Dab][Dab]T; disulfide I:3-I:12, I:5-I:10; amide I:6-II:N; lactam II:4-II:C)	0.25 (≈ 0.0973 µM)	1 (≈ 0.389 µM)	0.25 (≈ 0.0973 µM)	0.25 (≈ 0.0973 µM)	0.5 (≈ 0.195 µM)	0.25 (≈ 0.0973 µM)	0.5 (≈ 0.195 µM)	0.125 (≈ 0.0487 µM)	9
CC(=O)N[C@@H](CCN)C(=O)N[C@H](C(=O)N[C@H]1CSSC[C@@H](C(=O)N[C@H](C(N)=O)C(C)C)NC(=O)[C@H](C(C)C)NC(=O)[C@@H]2CSSC[C@H](NC(=O)[C@H](Cc3ccc(O)cc3)NC1=O)C(=O)N[C@@H](CCC(=O)N[C@@H](CCN)C(=O)N[C@H](C(=O)N[C@@H](CN)C(=O)N[C@H]1CCNC(=O)[C@H]([C@@H](C)O)NC(=O)[C@H](CCN)NC(=O)[C@H](CCN)NC(=O)[C@H](CC(C)C)NC(=O)[C@@H](CC(C)C)NC(=O)[C@H](CCN)NC1=O)[C@@H](C)O)C(=O)N[C@H](CCN)C(=O)N[C@@H](CO)C(=O)N[C@@H](Cc1c[nH]c3ccccc13)C(=O)N2)[C@H](O)C(C)C [Ex. 235] (I: Ac-[Dab][Leu(3R-OH)]CYCE[dDab]SWCVCV-NH2 / II: [Dab]T[Dap][Dab][Dab][dL]L[Dab][Dab]T; disulfide I:3-I:12, I:5-I:10; amide I:6-II:N; lactam II:4-II:C)	0.0625 (≈ 0.0244 µM)	0.25 (≈ 0.0977 µM)	0.25 (≈ 0.0977 µM)	0.125 (≈ 0.0489 µM)	0.25 (≈ 0.0977 µM)	0.0625 (≈ 0.0244 µM)	0.25 (≈ 0.0977 µM)	0.0625 (≈ 0.0244 µM)	4
CC(C)C[C@@H]1NC(=O)[C@@H](CC(C)C)NC(=O)[C@H](CCN)NC(=O)[C@@H](NC(=O)[C@H](CCN)NC(=O)[C@@H](NC(=O)[C@H](CCN)NC(=O)CC[C@@H]2NC(=O)[C@@H](NC(=O)[C@H](CO)NC(=O)[C@@H](NC(=O)[C@@H](O)C(C)C)[C@@H](C)O)CSSC[C@@H](C(=O)N[C@H](C(=O)N[C@@H](C)C(=O)N[C@@H](Cc3ccc(O)cc3)C(=O)NCCO)C(C)(C)C)NC(=O)[C@H](Cc3c[nH]c4ccccc34)NC(=O)[C@H](CCO)NC(=O)[C@@H](CCN)NC2=O)[C@@H](C)O)CCNC(=O)[C@H]([C@@H](C)O)NC(=O)[C@H](CCN)NC(=O)[C@H](CCN)NC1=O [Ex. 236] (I: H-[Hiv]TSCE[dDab][hSer]WC[Tle]AY-NHCH2CH2OH / II: [Dab]T[Dab][Dab][Dab][dL]L[Dab][Dab]T; disulfide I:4-I:9; amide I:5-II:N; lactam II:4-II:C)	2 (≈ 0.823 µM)	8 (≈ 3.29 µM)	0.25 (≈ 0.103 µM)	2 (≈ 0.823 µM)	1 (≈ 0.412 µM)	0.25 (≈ 0.103 µM)	0.25 (≈ 0.103 µM)	0.25 (≈ 0.103 µM)	<1
CC(=O)N[C@@H](CCN)C(=O)N[C@H](C(=O)N[C@H](C(=O)N[C@@H](Cc1ccc(O)cc1)C(=O)N[C@H]1CSSC[C@@H](C(=O)N[C@H](C(=O)N[C@@H](C)C(=O)N[C@@H](CO)C(N)=O)C(C)(C)C)NC(=O)[C@H](Cc2c[nH]c3ccccc23)NC(=O)[C@H](CO)NC(=O)[C@@H](CCN)NC(=O)[C@H](CCC(=O)N[C@@H](CCN)C(=O)N[C@H](C(=O)N[C@@H](CN)C(=O)N[C@H]2CCNC(=O)[C@H]([C@@H](C)O)NC(=O)[C@H](CCN)NC(=O)[C@H](CCN)NC(=O)[C@H](CC(C)C)NC(=O)[C@@H](CC(C)C)NC(=O)[C@H](CCN)NC2=O)[C@@H](C)O)NC1=O)[C@@H](C)O)C(C)C [Ex. 237] (I: Ac-[Dab]VTYCE[dDab]SWC[Tle]AS-NH2 / II: [Dab]T[Dap][Dab][Dab][dL]L[Dab][Dab]T; disulfide I:5-I:10; amide I:6-II:N; lactam II:4-II:C)	0.125 (≈ 0.05 µM)	0.5 (≈ 0.2 µM)	0.0625 (≈ 0.025 µM)	0.25 (≈ 0.1 µM)	0.125 (≈ 0.05 µM)	0.03125 (≈ 0.0125 µM)	0.125 (≈ 0.05 µM)	0.0625 (≈ 0.025 µM)	<1
CC(=O)N[C@@H](CCN)C(=O)N[C@H](C(=O)N[C@H](C(=O)N[C@@H](Cc1ccc(O)cc1)C(=O)N[C@H]1CSSC[C@@H](C(=O)N[C@H](C(=O)N[C@@H](C)C(=O)N[C@H](C(N)=O)C(C)C)C(C)(C)C)NC(=O)[C@H](Cc2c[nH]c3ccccc23)NC(=O)[C@H](CO)NC(=O)[C@@H](CCN)NC(=O)[C@H](CCC(=O)N[C@@H](CCN)C(=O)N[C@H](C(=O)N[C@@H](CN)C(=O)N[C@H]2CCNC(=O)[C@H]([C@@H](C)O)NC(=O)[C@H](CCN)NC(=O)[C@H](CCN)NC(=O)[C@H](CC(C)C)NC(=O)[C@@H](CC(C)C)NC(=O)[C@H](CCN)NC2=O)[C@@H](C)O)NC1=O)[C@@H](C)O)C(C)C [Ex. 238] (I: Ac-[Dab]VTYCE[dDab]SWC[Tle]AV-NH2 / II: [Dab]T[Dap][Dab][Dab][dL]L[Dab][Dab]T; disulfide I:5-I:10; amide I:6-II:N; lactam II:4-II:C)	0.0625 (≈ 0.0249 µM)	0.25 (≈ 0.0996 µM)	0.125 (≈ 0.0498 µM)	0.125 (≈ 0.0498 µM)	0.125 (≈ 0.0498 µM)	0.03125 (≈ 0.0125 µM)	0.125 (≈ 0.0498 µM)	0.0625 (≈ 0.0249 µM)	2

Continued, in another order:

MIC [1] [µg/mL]	MIC [2] [µg/mL]	MIC [3] [µg/mL]	MIC (Escherichia coli 926415) [µg/mL]	MIC [4] [µg/mL]	MIC [5] [µg/mL]	MIC [6] [µg/mL]	MIC [7] [µg/mL]	SMILES	Hemolysis at 200 μg/mL [8] [%]
0.125 (≈ 0.0493 µM)	0.25 (≈ 0.0985 µM)	0.125 (≈ 0.0493 µM)	0.0625 (≈ 0.0246 µM)	0.25 (≈ 0.0985 µM)	0.0625 (≈ 0.0246 µM)	0.25 (≈ 0.0985 µM)	0.125 (≈ 0.0493 µM)	CC(=O)N[C@@H](CCN)C(=O)N[C@@H](CC(C)C)C(=O)N[C@H](C(=O)N[C@@H](Cc1ccc(O)cc1)C(=O)N[C@H]1CSSC[C@@H](C(=O)N[C@H](C(=O)N[C@@H](C)C(=O)N[C@H](C(N)=O)C(C)C)C(C)(C)C)NC(=O)[C@H](Cc2c[nH]c3ccccc23)NC(=O)[C@H](CCN)NC(=O)[C@@H](CCN)NC(=O)[C@H](CCC(=O)N[C@@H](CCN)C(=O)N[C@H](C(=O)N[C@@H](CN)C(=O)N[C@H]2CCNC(=O)[C@H]([C@@H](C)O)NC(=O)[C@H](CCN)NC(=O)[C@H](CCN)NC(=O)[C@H](CC(C)C)NC(=O)[C@@H](CC(C)C)NC(=O)[C@H](CCN)NC2=O)[C@@H](C)O)NC1=O)[C@@H](C)O [Ex. 239] (I: Ac-[Dab]LTYCE[dDab][Dab]WC[Tle]AV-NH2 / II: [Dab]T[Dap][Dab][Dab][dL]L[Dab][Dab]T; disulfide I:5-I:10; amide I:6-II:N; lactam II:4-II:C)	1
0.0625 (≈ 0.0245 µM)	0.5 (≈ 0.196 µM)	0.125 (≈ 0.049 µM)	0.0625 (≈ 0.0245 µM)	0.125 (≈ 0.049 µM)	0.03125 (≈ 0.0122 µM)	0.25 (≈ 0.0979 µM)	0.0625 (≈ 0.0245 µM)	CC(=O)N[C@@H](CCN)C(=O)N[C@H](C(=O)N[C@H](C(=O)N[C@@H](Cc1ccc(O)cc1)C(=O)N[C@H]1CSSC[C@@H](C(=O)N[C@H](C(=O)N[C@@H](C)C(=O)N[C@H](C(N)=O)C(C)C)C(C)(C)C)NC(=O)[C@H](Cc2c[nH]c3ccccc23)NC(=O)[C@H](CCN)NC(=O)[C@@H](CCN)NC(=O)[C@H](CCC(=O)N[C@@H](CCN)C(=O)N[C@H](C(=O)N[C@@H](CN)C(=O)N[C@H]2CCNC(=O)[C@H]([C@@H](C)O)NC(=O)[C@H](CCN)NC(=O)[C@H](CCN)NC(=O)[C@H](CC(C)C)NC(=O)[C@@H](CC(C)C)NC(=O)[C@H](CCN)NC2=O)[C@@H](C)O)NC1=O)[C@@H](C)O)[C@H](O)C(C)C [Ex. 240] (I: Ac-[Dab][Leu(3R-OH)]TYCE[dDab][Dab]WC[Tle]AV-NH2 / II: [Dab]T[Dap][Dab][Dab][dL]L[Dab][Dab]T; disulfide I:5-I:10; amide I:6-II:N; lactam II:4-II:C)	1
